Source: PMC8546428, “Convergent olfactory trace amine-associated receptors detect biogenic polyamines with distinct motifs via a conserved binding site” (The Journal of Biological Chemistry, 2021)
Positions count from the first letter of the chain named.

Experiments:
mTAAR9 Y6.51W = molecular target: T1, mTAAR9 Y6.51W (Mus musculus, UniProt Q5QD04, Y274W); assay: CRE-luciferase reporter assay, mTAAR9 mutant in Hana3A; assay type: cell-based; conditions: read-out: EC50 (mean ± S.D., n = 3)
T1 construct: expressed in transfected cells; host or cells: Hana3A (HEK293-derived)
T1 sequence (Q5QD04 1-348 Y274W): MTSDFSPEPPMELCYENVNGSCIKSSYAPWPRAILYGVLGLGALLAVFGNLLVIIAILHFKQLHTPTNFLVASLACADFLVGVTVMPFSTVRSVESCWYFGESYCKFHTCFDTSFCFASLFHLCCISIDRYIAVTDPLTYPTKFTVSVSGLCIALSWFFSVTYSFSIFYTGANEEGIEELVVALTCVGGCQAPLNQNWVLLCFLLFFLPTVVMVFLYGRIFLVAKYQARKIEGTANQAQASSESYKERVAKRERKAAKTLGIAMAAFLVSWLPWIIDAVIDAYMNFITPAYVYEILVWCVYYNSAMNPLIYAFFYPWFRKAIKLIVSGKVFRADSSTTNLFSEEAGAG

mTAAR9 W7.40F = molecular target: T2, mTAAR9 W7.40F (Mus musculus, UniProt Q5QD04, W298F); assay: as above; assay type: cell-based; conditions: read-out: EC50 (mean ± S.D., n = 3)
T2 construct: expressed in transfected cells; host or cells: Hana3A (HEK293-derived)
T2 sequence (Q5QD04 1-348 W298F): T1 sequence (Q5QD04 1-348 Y274W) with W274Y, W298F

mTAAR9 W7.40Y = molecular target: T3, mTAAR9 W7.40Y (Mus musculus, UniProt Q5QD04, W298Y); assay: as above; assay type: cell-based; conditions: read-out: EC50 (mean ± S.D., n = 3)
T3 construct: expressed in transfected cells; host or cells: Hana3A (HEK293-derived)

mTAAR9 W7.40A = molecular target: T4, mTAAR9 W7.40A (Mus musculus, UniProt Q5QD04, W298A); assay: as above; assay type: cell-based; conditions: read-out: EC50 (mean ± S.D., n = 3)
T4 construct: expressed in transfected cells; host or cells: Hana3A (HEK293-derived)
T4 sequence (Q5QD04 1-348 W298A): T1 sequence (Q5QD04 1-348 Y274W) with W274Y, W298A

sTAAR365 T7.42A = molecular target: T5, sTAAR365 T7.42A (Petromyzon marinus, UniProt A0A678XMK4, T298A)
T5 sequence (A0A678XMK4 1-365 T298A): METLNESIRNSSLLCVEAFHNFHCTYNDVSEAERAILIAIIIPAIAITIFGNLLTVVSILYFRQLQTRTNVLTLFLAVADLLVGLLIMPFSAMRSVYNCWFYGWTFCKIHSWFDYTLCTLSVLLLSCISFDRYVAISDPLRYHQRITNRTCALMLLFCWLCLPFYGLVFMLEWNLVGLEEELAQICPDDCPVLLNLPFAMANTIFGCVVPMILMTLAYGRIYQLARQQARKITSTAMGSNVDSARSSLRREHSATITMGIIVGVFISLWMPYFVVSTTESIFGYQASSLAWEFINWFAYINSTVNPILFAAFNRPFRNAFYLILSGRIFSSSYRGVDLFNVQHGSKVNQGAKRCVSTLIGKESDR

sTAAR365 T7.42V = molecular target: T6, sTAAR365 T7.42V (Petromyzon marinus, UniProt A0A678XMK4, T298V)
T6 sequence (A0A678XMK4 1-365 T298V): T5 sequence (A0A678XMK4 1-365 T298A) with A298V

sTAAR365 Y7.43A = sTAAR365 Y7.43A (Petromyzon marinus, UniProt A0A678XMK4, Y299A); assay: cell-based
sTAAR365 Y7.43Q = sTAAR365 Y7.43Q (Petromyzon marinus, UniProt A0A678XMK4, Y299Q); assay: cell-based
sTAAR365 Y7.43S = sTAAR365 Y7.43S (Petromyzon marinus, UniProt A0A678XMK4, Y299S); assay: cell-based
sTAAR365 Y6.51A = assay: cAMP TR-FRET assay, sTAAR365 mutant in HEK293T; assay type: cell-based, sea lamprey; conditions: cAMP production
Description: All mutants were verified by DNA sequencing.

sTAAR365 Y6.51L = molecular target: T7, sTAAR365 Y6.51L (Petromyzon marinus, UniProt A0A678XMK4, Y272L); conditions: HEK293T, cAMP production
T7 sequence (A0A678XMK4 1-365 Y272L): T5 sequence (A0A678XMK4 1-365 T298A) with Y272L, A298T

sTAAR348 = conditions: expressed in HEK293T cells; cited from earlier work

Sequence of sTAAR365 Y7.43S (A0A678XMK4 whole entry Y299S): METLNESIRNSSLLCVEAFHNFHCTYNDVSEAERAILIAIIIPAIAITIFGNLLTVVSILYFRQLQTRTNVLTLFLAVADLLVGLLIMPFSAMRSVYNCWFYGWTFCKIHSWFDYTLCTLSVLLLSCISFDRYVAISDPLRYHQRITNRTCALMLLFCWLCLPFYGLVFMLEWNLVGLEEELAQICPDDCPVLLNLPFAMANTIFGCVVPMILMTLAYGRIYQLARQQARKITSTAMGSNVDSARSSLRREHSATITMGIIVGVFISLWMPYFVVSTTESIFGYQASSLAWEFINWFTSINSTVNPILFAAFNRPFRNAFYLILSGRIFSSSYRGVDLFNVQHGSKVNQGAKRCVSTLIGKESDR
T3 sequence (Q5QD04 whole entry W298Y): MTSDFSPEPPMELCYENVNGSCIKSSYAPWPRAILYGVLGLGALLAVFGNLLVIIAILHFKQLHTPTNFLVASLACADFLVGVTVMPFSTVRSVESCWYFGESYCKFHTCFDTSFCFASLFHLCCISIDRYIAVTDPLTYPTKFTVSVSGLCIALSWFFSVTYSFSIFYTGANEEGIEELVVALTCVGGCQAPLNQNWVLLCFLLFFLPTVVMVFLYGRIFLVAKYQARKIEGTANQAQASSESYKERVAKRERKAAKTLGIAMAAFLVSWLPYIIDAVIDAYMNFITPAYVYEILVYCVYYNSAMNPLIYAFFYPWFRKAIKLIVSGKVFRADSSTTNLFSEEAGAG
Sequence of sTAAR365 Y7.43Q (A0A678XMK4 whole entry Y299Q): as the sequence (A0A678XMK4 whole entry Y299S) above, with S299Q counted along it
Sequence of sTAAR365 Y7.43A (A0A678XMK4 whole entry Y299A): as the sequence (A0A678XMK4 whole entry Y299S) above, with S299A counted along it

## NCCCCCN [cadaverine]
mTAAR9 Y6.51W
  EC50: > 1000 µM
mTAAR9 W7.40F
  EC50: 83 ± 35 µM
mTAAR9 W7.40Y
  EC50: 28 ± 8 µM
mTAAR9 W7.40A
  EC50: > 1000 µM
sTAAR365 T7.42A
  increase of EC50 vs wild-type sTAAR365: over three
sTAAR365 T7.42V
  increase of EC50 vs wild-type sTAAR365: over three
sTAAR365 Y7.43A
  EC50: 144 ± 11 µM
sTAAR365 Y7.43Q
  EC50: 7 ± 0.3 µM
sTAAR365 Y7.43S
  EC50: 124 ± 9 µM

## NCCCCN [putrescine]
sTAAR365 Y6.51A
  EC50 (mean ± S.D., n = 3): loss
sTAAR365 Y6.51L
  EC50 (mean ± S.D., n = 3): loss

## NCCCNCCCCNCCCN [spermine]
sTAAR348
  response of sTAAR348: responds
